# From US5411984A, “Water soluble analogs and prodrugs of taxol” (Virginia Tech Intellectual Properties, Inc., priority 1992, dated 1995)
# What was measured:
# [1] = Magri and Kingston; cited from earlier work
# [2] = cited from earlier work
# [3] = cited from earlier work; remark: listed apart in the source
# P-388 = conditions: cited from earlier work
# [4] = Relative solubility by the 1-octanol and water partition method (UV absorption at 228 nm), taxol = 1
# Method: In separate experiments, taxol derivative 4 and 2'-succinyl taxol (R=NaO2 CCH2 CH2 CO2) were dissolved in a mildly basic aqueous solution.
# *Solubilities were determined by using the 1octanol and water partition
# method.Sample concentrations in water were determined by UV absorptions a […]
# Solubility in pure water = assay type: physicochemical
# [5] = Stability in pH 5 buffer / mildly acidic aqueous solution (HPLC or TLC, onset of cloudiness); assay type: physicochemical; conditions: method (b): 0.5 mg in 0.1 ml EtOH and 0.9 ml pH 5 buffer, room temperature
# Method: **Stabilities were determined in pH 5 buffer solution by one of the two
# methods indicated below.
# (a) 9.5 mg of sample was dissolved in 0.2 ml of EtOH and 0.2 ml of pH 5
# buffer solution and let stand at room temperature. The progress of
# decomposition was checked by HPLC or TLC and observation of the onset of
# (b) 0.5 mg of sample was dissolved in 0.1 ml of EtOH and 0.9 ml of pH 5
# buffer solution, the other conditions were the same as in (a) above. All
# samples were stable under these conditions for at least 24 hours. No
# hydrolysis was detectable by HPLC or TLC during this time period.
# [6] = test system: drug-refractory ovarian cancer; conditions: in vivo; cited from earlier work
# metastatic breast cancer = conditions: in vivo; cited from earlier work
# [7] = Cremophor EL diluent, without prolonged infusion and premedication with antiallergic drugs; cited from earlier work
# tubulin = conditions: cited from earlier work
smiles,measurement,setting,value
CC(=O)O[C@H]1C(=O)[C@@]2(C)[C@H]([C@H](OC(=O)c3ccccc3)[C@]3(O)C[C@H](OC(=O)[C@H](O[Si](C)(C)C(C)(C)C)[C@@H](NC(=O)c4ccccc4)c4ccccc4)C(C)=C1C3(C)C)[C@]1(OC(C)=O)CO[C@@H]1C[C@@H]2O [2'-(t-butyldimethylsilyl) taxol],biological activity,[1],essentially inactive
"CC(=O)O[C@H]1C(=O)[C@@]2(C)[C@H]([C@H](OC(=O)c3ccccc3)[C@]3(O)C[C@H](OC(=O)[C@H](OC(=O)CCN)[C@@H](NC(=O)c4ccccc4)c4ccccc4)C(C)=C1C3(C)C)[C@]1(OC(C)=O)CO[C@@H]1C[C@@H]2O [Compound 1, 2'-(β-alanyl)-taxol]",aqueous solubility,[2],increased water solubility
same,in vivo activity,[3],active in vivo
"CC(=O)O[C@H]1C(=O)[C@@]2(C)[C@H]([C@H](OC(=O)c3ccccc3)[C@]3(O)C[C@H](OC(=O)[C@H](OC(=O)CCC(=O)O)[C@@H](NC(=O)c4ccccc4)c4ccccc4)C(C)=C1C3(C)C)[C@]1(OC(C)=O)CO[C@@H]1C[C@@H]2O [Compound 2, 2'-succinyltaxol]",aqueous solubility,[2],increased water solubility
same,P-388 in vivo activity compared with taxol,P-388,diminished
"CC(=O)O[C@H]1C(=O)[C@@]2(C)[C@H]([C@H](OC(=O)c3ccccc3)[C@]3(O)C[C@H](OC(=O)[C@H](OC(=O)c4cc(C(=O)O)c(C(=O)O)cc4C(=O)O)[C@@H](NC(=O)c4ccccc4)c4ccccc4)C(C)=C1C3(C)C)[C@]1(OC(C)=O)CO[C@@H]1C[C@@H]2O [Compound 9b, Taxol 2'-(trisodium 1,2,4,5-benzenetetracarboxylate)]",times more water soluble than taxol,[4]; compared with taxol,more than 1500 times
same,solubility,Solubility in pure water,> 227 mg/mL
same,Stabilities at pH 5,[5],> 24 h
CC(=O)O[C@H]1C(=O)[C@@]2(C)[C@H]([C@H](OC(=O)c3ccccc3)[C@]3(O)C[C@H](OC(=O)[C@H](O)[C@@H](NC(=O)c4ccccc4)c4ccccc4)C(C)=C1C3(C)C)[C@]1(OC(C)=O)CO[C@@H]1C[C@@H]2O [Taxol],clinical activity against drug-refractory ovarian cancer,[6],excellent clinical activity
same,clinical activity in metastatic breast cancer,metastatic breast cancer,active drug
same,allergic reactions,[7],severe allergic reactions and even death
same,Relative Solubility (p'),[4],1
same,aqueous solubility,[2],low water solubility
same,effect on depolymerization of tubulin,tubulin,prevents depolymerization of the tubulin
same,effect on microtubule / tubulin polymer formation,tubulin,promotes formation of microtubules
